Laboratory results from article PMC5750217 (Nature Communications, 2018).

Tests used:
GltPh-R397C = molecular target: T1, GltPh-R397C (Pyrococcus horikoshii, UniProt O59010, R397C); experiment: biochemical; conditions: for Transport of radiolabelled substrate into proteoliposomes (in words): 100 nM L-[3H]aspartate, 1 µM L-[3H]glutamine, 10 µM 35S-cysteine ± 1 mM DTT, Na+ gradient
T1 construct: hexa-His (N, cleaved yes); made in house; host or cells: Escherichia coli Top10 (pBAD)
Protocol: Mutant and wild-type GltPh with an amino-terminal hexa-His tag were expressed in Escherichia coli Top10 cells (Invitrogen), which were grown in Luria broth medium at 37 °C. Ampicillin was added to a final concentration of 100 μg per ml. To induce expression of GltPh, 0.1% L-arabinose was added when cells reached an optical density of 0.6 at 660 nm, and cells were harvested 4 h post induction. Membranes were isolated, and then solubilised with n-dodecyl-β-D-maltopyranoside (C12M, Anatrace). Histidine containing proteins were purified using Ni^2+−nitrilotriacetic acid resin (Qiagen). The histidine tag was subsequently removed from GltPh by digestion with thrombin (10 U per mg protein) and the protein further purified on a Superdex 200 size exclusion column, where the detergent was exchanged to n-decyl-β-D-maltopyranoside (C10M, Anatrace).
Pure protein was reconstituted into liposomes composed of 75% E. coli Polar Lipid Extract and 25% 1-palmitoyl-2-oleoyl-sn-glycero-3 ^−phopshocholine (Avanti Polar Lipids). Lipids were mixed, dried under nitrogen and resuspended in internal buffer (100 mM KCl, 20 mM HEPES-Tris pH 7.5) using brief sonication (Laboratory Supplies Co.). The lipid suspension was frozen in liquid nitrogen and thawed at room temperature several times. Liposomes were formed by extrusion through 400 nm polycarbonate membranes (Avanti Polar Lipids) and were treated with Triton X-100 at a 0.5:1 (w/w) detergent to lipid ratio prior to the addition of protein at 0.25 μg protein per mg lipid. The protein/lipid mixture was left at room temperature for 30 min before detergent was removed using SM2 Biobeads (BioRad). The mixture was then incubated with gentle agitation, with four consecutive batches of Biobeads (80 mg per ml). Proteoliposomes were concentrated by centrifugation at 150,000 g for 30 min, resuspended at 100 mg lipid per ml and either used immediately or flash-frozen in liquid nitrogen and stored at −80 °C.
Mutant and wild-type GltPh-mediated transport of radiolabelled substrate was assayed by diluting proteoliposomes (100 mg lipid per ml) 133-fold into uptake buffer (100 mM NaCl, 20 mM HEPES-Tris pH 7.5, 1 μM valinomycin, 100 nM–1 µM L-[^3H]substrate) pre-warmed to 30 °C. At each time point, a 200 µl aliquot was removed and diluted 10-fold into ice-cold quench buffer (100 mM LiCl, 20 mM HEPES-Tris pH 7.5), followed by immediate filtration over nitrocellulose filters (0.22 μm pore size, Millipore). The filters were washed with ice-cold quench buffer and assayed for radioactivity using a Trilux beta counter (PerkinElmer). To establish substrate concentration–response curves, extraliposomal L-[^3H]substrate was varied between 500 nM and 100 µM, maintaining NaCl concentrations at 300 mM. For inhibitor concentration–response curves, for wild-type GltPh 100 nM L-[^3H]aspartate, and for mutant GltPh 1 µM L-[^3H]serine, was co-applied with varying inhibitor concentrations. Background levels of uptake were measured by diluting proteoliposomes into internal buffer (100 mM KCl, 20 mM HEPES-Tris pH 7.5) containing 1 µM of valinomycin and the indicated concentrations of L-[^3H]substrate.
Supplementary Figure 6. GltPh‐R397C, ASCT1 and ASCT2 are functional cysteine transporters. (a) Purified GltPh‐R397C was reconstituted into liposomes and 10µM 35S‐cysteine transport was measured over 10 minutes alone or in the presence of 1 mM dithiothreitol (DTT). Background levels of uptake were measured by diluting proteoliposomes into internal buffer (100 mM KCl, 20 mM HEPES‐Tris pH 7.5) containing 1 µM of valinomycin and the 10µM 35S‐cysteine. […]
(c) Neutral amino acid exchange in GltPh‐R397C. Counterflow experiments in which Na+ and amino acid loaded liposomes were used to detect the transport of a range of unlabelled neutral amino acids by exchanging with external 3H‐serine. Counterflow assays were performed using liposomes containing 200mM NaCl, 20 mM HEPES/Tris pH 7.5, and 1 mM of unlabelled amino acid as indicated. […]

ASCT1 = molecular target: T2, ASCT1 (Homo sapiens, UniProt P43007); experiment: Radiolabelled uptake in oocytes expressing ASCT1; type: cell-based; conditions: 10 µM radiolabelled substrate, 10 min, room temperature
T2 construct: expressed in transfected cells; host or cells: Xenopus laevis oocytes (cRNA injection)
T2 sequence (P43007 1-532): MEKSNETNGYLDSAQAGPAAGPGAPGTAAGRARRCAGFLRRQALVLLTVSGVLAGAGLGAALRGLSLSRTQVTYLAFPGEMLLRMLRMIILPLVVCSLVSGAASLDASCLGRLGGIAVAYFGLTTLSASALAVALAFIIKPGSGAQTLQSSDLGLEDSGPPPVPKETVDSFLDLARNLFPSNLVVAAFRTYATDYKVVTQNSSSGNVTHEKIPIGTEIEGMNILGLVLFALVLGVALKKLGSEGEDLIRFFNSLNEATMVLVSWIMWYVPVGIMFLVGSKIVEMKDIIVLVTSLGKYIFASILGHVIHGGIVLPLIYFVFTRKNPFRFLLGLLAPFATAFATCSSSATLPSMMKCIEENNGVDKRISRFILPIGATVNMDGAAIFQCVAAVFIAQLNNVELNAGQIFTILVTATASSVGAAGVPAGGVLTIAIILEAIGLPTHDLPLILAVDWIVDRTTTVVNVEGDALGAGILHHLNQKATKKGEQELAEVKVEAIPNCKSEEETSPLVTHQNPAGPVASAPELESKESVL
Protocol: Uptake of L-[^3H]amino acids (PerkinElmer Life Sciences) was measured in oocytes expressing wild-type and mutant ASCT1, and uninjected oocytes. Five oocytes were incubated in Cl^−-containing buffer with 10 µM L-[^3H]amino acids at room temperature. After 10 min, uptake was terminated by three rapid washes in ice-cold Cl^−-containing buffer followed by lysis in 50 mM NaOH and 1% SDS. L-[^3H]amino acids were measured by scintillation counting using a Trilux beta counter (PerkinElmer Life Sciences).
Supplementary Figure 6. GltPh‐R397C, ASCT1 and ASCT2 are functional cysteine transporters. (a) […]
7.5) containing 1 µM of valinomycin and the 10µM 35S‐cysteine. […]
All data represent the mean of triplicate
(1 picture or pasted object on this page, not shown here)

T1 sequence (O59010 whole entry R397C): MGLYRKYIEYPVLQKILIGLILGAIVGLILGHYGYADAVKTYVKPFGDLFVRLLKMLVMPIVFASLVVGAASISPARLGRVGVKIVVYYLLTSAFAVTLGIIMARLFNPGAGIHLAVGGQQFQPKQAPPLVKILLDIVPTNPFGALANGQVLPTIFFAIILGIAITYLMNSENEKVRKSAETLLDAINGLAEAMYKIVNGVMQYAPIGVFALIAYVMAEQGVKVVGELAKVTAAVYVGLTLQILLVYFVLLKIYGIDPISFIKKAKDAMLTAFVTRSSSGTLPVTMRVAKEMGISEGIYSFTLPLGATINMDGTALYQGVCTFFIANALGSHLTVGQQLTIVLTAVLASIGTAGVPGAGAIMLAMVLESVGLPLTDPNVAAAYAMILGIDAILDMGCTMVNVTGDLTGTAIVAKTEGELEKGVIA

N[C@@H](CCC(=O)Nc1ccc([N+](=O)[O-])cc1)C(=O)O [GPNA, glutamyl-p-nitroanilide]
IC50 for inhibition of L-[3H]serine transport (GltPh-R397C; GltPh-R397C, 1 µM L-[3H]serine): poorly inhibited

NC(=O)CC[C@H](N)C(=O)O [L-glutamine]
Transport of radiolabelled substrate into proteoliposomes (in words) (GltPh-R397C; GltPh-R397C, listed as L-Glutamine): not a substrate
Transport of radiolabelled substrate into proteoliposomes (in words) (GltPh-R397C; GltPh-R397C, listed as L-[^3H]glutamine): not transported at levels above background
Reduction of L-[3H]serine transport by unlabelled competitor (GltPh-R397C; GltPh-R397C, 10 µM L-[3H]serine, 100-fold excess unlabelled amino acid): able to bind and inhibit
Radiolabelled substrate uptake into oocytes (in words) (ASCT1): no glutamine transport is observed

N[C@@H](CO)C(=O)O [L-serine]
EC50 (GltPh-R397C): 4.5 ± 0.9 µM
Fold lower affinity for GltPh-R397C compared with L-aspartate for wild-type GltPh (GltPh-R397C; serine at GltPh-R397C vs L-aspartate at wild-type GltPh): 100 fold
Radiolabelled substrate uptake into oocytes (in words) (ASCT1): observe L-[^3H]serine uptake

N[C@@H](CS)C(=O)O [L-cysteine]
Radiolabelled substrate uptake into oocytes (in words) (ASCT1): robust L-[^35S]cysteine uptake
